Consider eleven compounds from US8658794B2, “8-methyl-1-phenyl-imidazol[1,5-a]pyrazine compounds as Lck inhibitors and uses thereof” (Merck Sharp & Dohme B.V., priority 2010, dated 2014).

SMILES strings stand for the structures.

T1 sequence (P06239 whole entry): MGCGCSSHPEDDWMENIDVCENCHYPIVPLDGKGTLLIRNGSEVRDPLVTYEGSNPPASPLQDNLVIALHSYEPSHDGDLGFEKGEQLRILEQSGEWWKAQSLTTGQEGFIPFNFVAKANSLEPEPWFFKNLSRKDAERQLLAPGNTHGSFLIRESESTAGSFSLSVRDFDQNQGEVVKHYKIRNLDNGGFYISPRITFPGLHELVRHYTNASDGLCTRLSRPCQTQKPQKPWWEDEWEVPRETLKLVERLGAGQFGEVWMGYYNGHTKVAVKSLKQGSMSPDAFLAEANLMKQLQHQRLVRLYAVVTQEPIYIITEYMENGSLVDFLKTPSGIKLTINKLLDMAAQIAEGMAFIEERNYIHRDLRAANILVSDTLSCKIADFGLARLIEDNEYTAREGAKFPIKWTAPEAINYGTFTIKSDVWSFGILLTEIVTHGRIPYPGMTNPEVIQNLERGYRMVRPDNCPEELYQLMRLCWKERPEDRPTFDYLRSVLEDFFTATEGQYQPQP

The experiment addresses T1, N-terminal His6-tagged recombinant full-length human Lck (Homo sapiens, UniProt P06239).
T1 construct: N-terminal His6-tagged recombinant full-length human Lck; His6 (N); purchased Millipore
As to the kind of experiment: Lck IMAP assay. In kind it is biochemical. As to conditions: ATP 6 μM (KM,ATP), enzyme pre-incubated with compounds for 60 minutes, values given as bins. The method, boiled down: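 Full-length His6-Lck at 0.1 U/ml was preincubated 60 min with compound, then run 120 min at room temperature with 100 nM fluorescein-p34cdc2 peptide and 6 μM ATP (KM) in pH 7.2 Tris buffer. Read-out by IMAP fluorescence polarization; pIC50 from ten-point √10 dilutions starting at 10^-6 M.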
Consider `COc1cc(-c2nc([C@H]3CC[C@H](N4CCN(C)CC4)CC3)n3ccnc(C)c23)ccc1NC(=O)c1cc2c(OC)cccc2[nH]1` [Example 58, 4-Methoxy-N-(2-methoxy-4-(8-methyl-3-((trans)-4-(4-methylpiperazin-1-yl)cyclohexyl)imidazo[1,5-a]pyrazin-1-yl)phenyl)-1H-indole-2-carboxamide], for which the IC50 (commonly the concentration needed to halve the response being measured) was at most 10 nM.

Turning to `COc1cc(-c2nc(C3CCN(C(=O)CN(C)C)CC3)n3ccnc(C)c23)ccc1NC(=O)c1cc2ccccc2n1C` [Example 19, N-(4-(3-(1-(2-(dimethylamino)acetyl)piperidin-4-yl)-8-methylimidazo[1,5-a]pyrazin-1-yl)-2-methoxyphenyl)-1-methyl-1H-indole-2-carboxamide], the IC50 is at most 10 nM.

On to `COc1cc(-c2nc([C@H]3CC[C@@H](N4CCOCC4)CC3)n3ccnc(C)c23)ccc1NC(=O)c1cc2c(OC)cccc2n1C` [Example 26d, 4-methoxy-N-(2-methoxy-4-(8-methyl-3-((cis)-4-morpholinocyclohexyl)imidazo[1,5-a]pyrazin-1-yl)phenyl)-1-methyl-1H-indole-2-carboxamide], for which the IC50 is at most 10 nM.

With `COc1cc(-c2nc(C3(C)COC3)n3ccnc(C)c23)ccc1NC(=O)c1cc2c(OC)cccc2n1C` [Example 13, 4-Methoxy-N-(2-methoxy-4-(8-methyl-3-(3-methyloxetan-3-yl)imidazo[1,5-a]pyrazin-1-yl)phenyl)-1-methyl-1H-indole-2-carboxamide], the IC50 is at most 10 nM.

Consider `COc1cc(-c2nc(C3CCOCC3)n3ccnc(C)c23)c(F)cc1NC(=O)OC(C)CCCO` (centres unmarked) [Example 47, 5-Hydroxypentan-2-yl 5-fluoro-2-methoxy-4-(8-methyl-3-(tetrahydro-2h-pyran-4-yl)imidazo[1,5-a]pyrazin-1-yl)phenylcarbamate], for which the IC50 was 100 to 1000 nM.

With `COc1cc(-c2nc(C3CCOCC3)n3ccnc(C)c23)ccc1NC(=O)O[C@@H](C)CCO` [Example 44, (S)-4-hydroxybutan-2-yl 2-methoxy-4-(8-methyl-3-(tetrahydro-2H-pyran-4-yl)imidazo[1,5-a]pyrazin-1-yl)phenylcarbamate], the IC50 is 10 to 100 nM.

Regarding `COc1ccc2[nH]c(C(=O)Nc3ccc(-c4nc(C5CCOCC5)n5ccnc(C)c45)cc3OC)cc2n1` [Example 42, 5-methoxy-N-(2-methoxy-4-(8-methyl-3-(tetrahydro-2H-pyran-4-yl)imidazo[1,5-a]pyrazin-1-yl)phenyl)-1H-pyrrolo[3,2-b]pyridine-2-carboxamide], the IC50 is 10 to 100 nM.

On to `COc1cc(-c2nc([C@H]3CC[C@H](N4CCNCC4)CC3)n3ccnc(C)c23)ccc1NC(=O)c1cc2c(OC)cccc2n1C` [Example 54, 4-Methoxy-N-(2-methoxy-4-(8-methyl-3-((trans)-4-(piperazin-1-yl)cyclohexyl)imidazo[1,5-a]pyrazin-1-yl)phenyl)-1-methyl-1H-indole-2-carboxamide], for which the IC50 was at most 10 nM.

Consider `COc1cc(-c2nc([C@H]3CC[C@H](OC(=O)NC4CCCC4)CC3)n3ccnc(C)c23)ccc1NC(=O)c1cc2c(OC)cccc2n1C` [Example 51, (trans)-4-(1-(3-Methoxy-4-(4-methoxy-1-methyl-1H-indole-2-carboxamido)phenyl)-8-methylimidazo[1,5-a]pyrazin-3-yl)cyclohexyl cyclopentylcarbamate], for which the IC50 is 10 to 100 nM.

`CCC[C@H](C)OC(=O)Nc1ccc(-c2nc([C@H]3CCN(C(=O)COC)C3)n3ccnc(C)c23)cc1OC` [Example 50, (S)-pentan-2-yl 2-methoxy-4-(3-((S)-1-(2-methoxyacetyl)pyrrolidin-3-yl)-8-methylimidazo[1,5-a]pyrazin-1-yl)phenylcarbamate]: the IC50 was at most 10 nM.

With `CCC[C@H](C)OC(=O)Nc1ccc(-c2nc(N3CCN(C(C)=O)CC3)n3ccnc(C)c23)cc1OC` [Example 31, (S)-Pentan-2-yl 4-(3-(4-acetylpiperazin-1-yl)-8-methylimidazo[1,5-a]pyrazin-1-yl)-2-methoxyphenylcarbamate], the IC50 is at most 10 nM.
